From the supplement of paper PMC11208160

Experiment: recombinant barcode read abundance after kanamycin selection (control-corrected) (log10(CPM+1)); higher = more efficient recombination; sequences stand for … in AGTGCAGAGAAAATCGGCCAGTTTTCTCTGCCTGCAGTCCGCATGCCGT…AGATTTATGCAGCGGACTGCCTTTCTCCCAAAGTGATAAACCGGACAGTATCATGGACCGGTTTTCCCGGTAATCCGTATTTGCAAGGTTGGTTTCACT; site = the 11-nt target
Protocol: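 Pooled E. coli target-specificity screen for the IS621 bridge recombinase. Each library plasmid pairs an 11-nt target (CT core) with a bridge RNA whose target-binding loop (9-nt LTG + 4-nt RTG) is reprogrammed; the rest of the 177-nt WT IS621 bridge RNA scaffold is fixed. The plasmid is co-electroporated with a WT donor plasmid; recombinase is induced with 0.1 mM IPTG and recombinants are selected on kanamycin. Recombinant barcodes are sequenced, converted to CPM, averaged over two biological replicates and corrected by the unselected control CPM. Molecule = full bridge RNA written as DNA: LTG = specificity nt 1-9, RTG = reverse complement of specificity nt 8-11, in the WT scaffold.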
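Further: IS621 recombinase and bridge RNA in Escherichia coli cells.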

Sequence | recombinant barcode read abundance (log10)
AATTTGACTTGGGTTCTAACCTGTTGCCT (site AAGTTGACTAG) | 0.115
AATTTGACTTGGGTTCTAACCTGTTGCCT (site AATTTGACTAG) | 0.576
ACAAGAGCTTGGGTTCTAACCTGTTGCCT (site ACAAGAGCTAG) | 1.07
ACAAGAGCTTGGGTTCTAACCTGTTGCCT (site ACCAGAGCTAG) | 0.266
ACAAGAGCTTGGGTTCTAACCTGTTGCCT (site ACGAGAGCTAG) | 0.0837
ACAAGAGCTTGGGTTCTAACCTGTTGCCT (site ACTAGAGCTAG) | 0.133
ACAATACCTTGGGTTCTAACCTGTTGCCG (site ACAATACCTCG) | 0.408
ACAATACCTTGGGTTCTAACCTGTTGCCG (site ACAATAGCTAG) | 0.51
ACAATCTCTTGGGTTCTAACCTGTTGCTC (site ACAATCTCTGA) | 1.22
ACAATCTCTTGGGTTCTAACCTGTTGCTC (site CACCAGACTTG) | 0.066
ACACACCCTTGGGTTCTAACCTGTTGCGG (site ACACACCCTCC) | 2.53
ACACACCCTTGGGTTCTAACCTGTTGCGG (site ACGCACGCTCC) | 0.0353
ACACGAGCTTGGGTTCTAACCTGTTGCAG (site ACACGAGCTCT) | 1.3
ACACGAGCTTGGGTTCTAACCTGTTGCAG (site TGCGATACTAA) | 0.326
ACACGGACTTGGGTTCTAACCTGTTGCTA (site ACACGGACTTA) | 1.38
ACACGGACTTGGGTTCTAACCTGTTGCTA (site GTGGTACCTAT) | 0.0282
ACACTCCCTTGGGTTCTAACCTGTTGCCT (site AAGCTCCCTAG) | 0.415
ACACTCCCTTGGGTTCTAACCTGTTGCCT (site ACACTCCCTAG) | 0.294
ACACTCCCTTGGGTTCTAACCTGTTGCTG (site ACACACTCTCA) | 0.104
ACACTCCCTTGGGTTCTAACCTGTTGCTG (site ACACTCCCTCA) | 2.14
ACACTGTCTTGGGTTCTAACCTGTTGCGG (site ACAATGTCTCC) | 0.0253
ACACTGTCTTGGGTTCTAACCTGTTGCGG (site ACACTGTCTCC) | 1.49

Sequence | recombinant barcode read abundance (log10)
ACACTGTCTTGGGTTCTAACCTGTTGCGG (site ACAGTGTCTCC) | 0.379
ACACTGTCTTGGGTTCTAACCTGTTGCGG (site ACATTGTCTCC) | 0.429
ACAGAGGCTTGGGTTCTAACCTGTTGCCG (site ACAGAGGCTCG) | 1.12
ACAGAGGCTTGGGTTCTAACCTGTTGCCG (site ACTCAGGCTCG) | 0.155
ACAGCCGCTTGGGTTCTAACCTGTTGCCT (site ACAGACGCTAG) | 0.221
ACAGCCGCTTGGGTTCTAACCTGTTGCCT (site ACAGCCGCTAG) | 1.46
ACAGCCGCTTGGGTTCTAACCTGTTGCCT (site ACAGGCGCTAG) | 0.108
ACAGCCGCTTGGGTTCTAACCTGTTGCCT (site ACAGTCGCTAG) | 0.118
ACAGCTTCTTGGGTTCTAACCTGTTGCCT (site ACAGCTACTAG) | 0.0838
ACAGCTTCTTGGGTTCTAACCTGTTGCCT (site ACAGCTTCTAG) | 1.53
ACAGGCGCTTGGGTTCTAACCTGTTGCCT (site ACAGACGCTAG) | 0.858
ACAGGCGCTTGGGTTCTAACCTGTTGCCT (site ACAGCCGCTAG) | 0.617
ACAGGCGCTTGGGTTCTAACCTGTTGCCT (site ACAGGCGCTAG) | 0.673
ACAGGCGCTTGGGTTCTAACCTGTTGCCT (site ACAGTCGCTAG) | 0.0488
ACAGGTGCTTGGGTTCTAACCTGTTGCCT (site ACAGGTGCTAG) | 1.98
ACAGGTGCTTGGGTTCTAACCTGTTGCCT (site ACATGTGCTAG) | 0.0807
ACAGTAGCTTGGGTTCTAACCTGTTGCTG (site ACAATAGCTCA) | 0.181
ACAGTAGCTTGGGTTCTAACCTGTTGCTG (site ACACTAGCTCA) | 0.0586
ACAGTAGCTTGGGTTCTAACCTGTTGCTG (site ACAGTAGCTCA) | 1.87
ACAGTAGCTTGGGTTCTAACCTGTTGCTG (site ACATTAGCTCA) | 0.0402
ACAGTCGCTTGGGTTCTAACCTGTTGCCT (site ACAGACGCTAG) | 0.229
ACAGTCGCTTGGGTTCTAACCTGTTGCCT (site ACAGCCGCTAG) | 0.0854

Sequence | recombinant barcode read abundance (log10)
ACAGTCGCTTGGGTTCTAACCTGTTGCCT (site ACAGGCGCTAG) | 0
ACAGTCGCTTGGGTTCTAACCTGTTGCCT (site ACAGTCGCTAG) | 1.4
ACATAAGCTTGGGTTCTAACCTGTTGCCT (site ACATAAGCTAG) | 1.1
ACATAAGCTTGGGTTCTAACCTGTTGCCT (site CATCGGACTCT) | 0.116
ACATATACTTGGGTTCTAACCTGTTGCTT (site ACATATACTAA) | 0.0772
ACATATACTTGGGTTCTAACCTGTTGCTT (site CGTAGCCCTCC) | 0.125
ACATGAACTTGGGTTCTAACCTGTTGCAT (site ACATGAACTAT) | 1.38
ACATGAACTTGGGTTCTAACCTGTTGCAT (site ACATGCACTAT) | 0.111
ACATGAACTTGGGTTCTAACCTGTTGCAT (site ACATGGACTAT) | 0.141
ACATGAACTTGGGTTCTAACCTGTTGCAT (site ACATGTACTAT) | 0.0493
ACATGACCTTGGGTTCTAACCTGTTGCTT (site ACATGACCTAA) | 0.223
ACATGACCTTGGGTTCTAACCTGTTGCTT (site ATATGAGCTAA) | 0.0302
ACATGGGCTTGGGTTCTAACCTGTTGCCG (site ACATGGGCTCG) | 0.695
ACATGGGCTTGGGTTCTAACCTGTTGCCG (site ACATGTGCTCT) | 0.266
ACATGTCCTTGGGTTCTAACCTGTTGCGT (site ACATGTCCTAA) | 0.141
ACATGTCCTTGGGTTCTAACCTGTTGCGT (site ACATGTCCTAC) | 2.39
ACATGTCCTTGGGTTCTAACCTGTTGCGT (site ACATGTCCTAG) | 0.23
ACATGTCCTTGGGTTCTAACCTGTTGCGT (site ACATGTCCTAT) | 1.48
ACATGTGCTTGGGTTCTAACCTGTTGCAG (site ACATGGGCTCG) | 0.0637
ACATGTGCTTGGGTTCTAACCTGTTGCAG (site ACATGTGCTCT) | 1.72
ACATTAGCTTGGGTTCTAACCTGTTGCAA (site ACATTAGCTTT) | 0.609
ACATTAGCTTGGGTTCTAACCTGTTGCAA (site ACTTTAGCTCT) | 0.0541
